Reference: PMC3037272 (Journal of medicinal chemistry, 2010)

Legend:
[1] = target: T1, 26S proteasome β1 subunit (Oryctolagus cuniculus, UniProt A0A5F9DQW2); format: biochemical, rabbit
T1 sequence (A0A5F9DQW2 1-212): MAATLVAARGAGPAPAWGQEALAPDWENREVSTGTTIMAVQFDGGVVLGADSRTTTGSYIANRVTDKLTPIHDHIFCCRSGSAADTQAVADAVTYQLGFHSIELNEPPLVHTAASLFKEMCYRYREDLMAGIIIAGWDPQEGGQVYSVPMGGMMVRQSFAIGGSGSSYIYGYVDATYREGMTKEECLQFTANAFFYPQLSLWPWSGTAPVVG

[2] = target: T2, 26S proteasome β5 subunit (Oryctolagus cuniculus, UniProt G1T4Q9); format: biochemical, rabbit
T2 sequence (G1T4Q9 1-263): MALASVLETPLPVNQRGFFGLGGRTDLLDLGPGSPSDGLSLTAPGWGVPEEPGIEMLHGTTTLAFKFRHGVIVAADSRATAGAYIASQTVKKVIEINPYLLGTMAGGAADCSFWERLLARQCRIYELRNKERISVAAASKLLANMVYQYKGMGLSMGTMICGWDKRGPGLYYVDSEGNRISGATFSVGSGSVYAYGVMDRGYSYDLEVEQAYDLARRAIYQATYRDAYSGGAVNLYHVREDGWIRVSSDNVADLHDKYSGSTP

[3] = target: T3, 26S proteasome β2 subunit (Oryctolagus cuniculus, UniProt G1SWK8)
T3 sequence (G1SWK8 1-271): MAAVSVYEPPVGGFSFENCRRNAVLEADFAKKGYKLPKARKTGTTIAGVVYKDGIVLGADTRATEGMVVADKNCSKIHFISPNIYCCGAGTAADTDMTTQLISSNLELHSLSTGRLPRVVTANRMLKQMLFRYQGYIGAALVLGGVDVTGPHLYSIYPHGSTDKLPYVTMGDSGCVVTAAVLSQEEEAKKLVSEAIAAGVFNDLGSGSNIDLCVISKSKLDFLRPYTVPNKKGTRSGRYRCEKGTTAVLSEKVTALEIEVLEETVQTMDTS

proteasome β2 subunit = proteasome β2 subunit (Homo sapiens, UniProt Q99436); assay: Competition assay against fluorescent probe MV151; conditions: HEK-293 lysate
proteasome β1 subunit = proteasome β1 subunit (Homo sapiens, UniProt P28072); assay: Competition assay against fluorescent probe MV151; format: binding; conditions: HEK-293 lysate, between 100 and 250 nM, competition against 9
proteasome β5 subunit = proteasome β5 subunit (Homo sapiens, UniProt P28074); assay: Competition assay against fluorescent probe MV151; format: binding; conditions: HEK-293 lysate

CC(C)C[C@H](NC(=O)[C@H](Cc1c(F)c(F)c(F)c(F)c1F)NC(=O)c1cnccn1)B1OC2C[C@@H]3C[C@@H](C3(C)C)[C@]2(C)O1 (some centres unmarked) [2a]
IC50 [1]: 440 nM

CC(C)C[C@H](NC(=O)[C@H](Cc1cc(C(F)(F)F)cc(C(F)(F)F)c1)NC(=O)c1cnccn1)B1OC2C[C@@H]3C[C@@H](C3(C)C)[C@]2(C)O1 (some centres unmarked) [2b]
IC50 [2]: 3 nM
IC50 [1]: 160 nM
IC50 [3]: 11000 nM

CC(C)C[C@H](NC(=O)[C@H](Cc1c(F)c(F)c(F)c(F)c1F)NC(=O)[C@H](Cc1ccccc1)NC(=O)[C@H](Cc1ccccc1)N=[N+]=[N-])C(=O)[C@@]1(C)CO1 [4a]
β2 band in competition assay (proteasome β2 subunit; 1 μM inhibitor, Figure 3): the majority of the corresponding band in Figure 3 is gone
effect on β2 when β5 is saturated (proteasome β2 subunit; between 100 and 250 nM, competition against 9): unaffected or even upregulated
IC50 [1]: > 15000 nM
effect on β1 when β5 is saturated (proteasome β1 subunit): unaffected or even upregulated
concentration at which inhibition of β5 is apparent (proteasome β5 subunit; concentration series 1 nM to 1 μM, competition against 9): 5 nM

CC(C)C[C@H](NC(=O)[C@H](Cc1cc(C(F)(F)F)cc(C(F)(F)F)c1)NC(=O)[C@H](Cc1ccccc1)NC(=O)[C@H](Cc1ccccc1)N=[N+]=[N-])C(=O)[C@@]1(C)CO1 [4b]
IC50 [2]: 100 nM
IC50 [1]: > 15000 nM
IC50 [3]: > 15000 nM

CC(C)C[C@H](NC(=O)[C@H](Cc1ccccc1)NC(=O)[C@H](Cc1c(F)c(F)c(F)c(F)c1F)NC(=O)[C@H](Cc1ccccc1)N=[N+]=[N-])C(=O)[C@@]1(C)CO1 [5a]
IC50 [2]: 200 nM
IC50 [1]: > 15000 nM
IC50 [3]: > 15000 nM

CC(C)C[C@H](NC(=O)[C@H](Cc1ccccc1)NC(=O)[C@H](Cc1cc(C(F)(F)F)cc(C(F)(F)F)c1)NC(=O)[C@H](Cc1ccccc1)N=[N+]=[N-])C(=O)[C@@]1(C)CO1 [5b]
IC50 [2]: 130 nM
IC50 [1]: > 15000 nM
IC50 [3]: > 15000 nM

CC(C)C[C@H](NC(=O)[C@H](Cc1ccccc1)NC(=O)[C@H](Cc1ccccc1)NC(=O)[C@H](Cc1ccccc1)N=[N+]=[N-])C(=O)[C@@]1(C)CO1 [compound 3]
IC50 [1]: > 15000 nM

CC1=CC(C)=[N+]2C1=C(CCCCc1cn([C@@H](Cc3ccccc3)C(=O)N[C@@H](Cc3ccccc3)C(=O)N[C@@H](Cc3c(F)c(F)c(F)c(F)c3F)C(=O)N[C@@H](CC(C)C)C(=O)[C@@]3(C)CO3)nn1)c1c(C)cc(C)n1[B-]2(F)F [compound 7]
IC50 [2]: 300 nM
IC50 [1]: > 10000 nM
IC50 [3]: > 10000 nM
concentration at which labeling of the β5 subunit is visible (proteasome β5 subunit; direct fluorescent labeling, read-out at 520 nm): 1 nM
